# In patent US9957214B2, “Multifunctional radical quenchers” (ARIZONA BOARD OF REGENTS ON BEHALF OF ARIZONA STATE …, priority 2012, dated 2018):
# How the values were obtained:
# [1] = tested on: BT474 cell line and FRDA lymphocytes; assay: Cytotoxicity assay (WST-1); assay type: cell-based, human; conditions: 48 h, varying concentrations
# Experimental: FIG. 5. Effect of compound 40 and geldanamycin on cell viability was compared to vehicle (DMSO) after treatment with varying concentrations for 48 h in BT474 cell line and FRDA lymphocytes, respectively. Each measurement is an average of three independent experiments run in quartet.
# […] geldanamycin were tested for their cytotoxicity in human breast cancer cell line BT474 and FRDA lymphocytes using the vital mitochondrial function assay WST-1 Kit (Roche Diagnostics). BT474 cells (2000 cell/well) and FRDA lymphocytes (5000 cell/well) (100 μl) were seeded in 96-well plates and incubated for 48 h. Compound 40 or geldanamycin at varying concentrations were added and the plates were returned to the incubator for 48 h. Cell viability was determined using a WST-1 Kit (Roche Diagnostics) following the manufacturer's instructions. WST-1 reagent (10 μL) was added to each well, containing 200 μL media and further incubation for 2 h (BT474) and 4 h (FRDA lymphocytes). Color intensity was measured at 450 nm using a SpectraMax M5 microplate reader (Molecular Devices, Sunnyvale, Calif., USA). Results are expressed as percentage of viable cells relative to untreated control after subtracting background. Data are expressed as means±S.E.M. (n=3).
# [2] = tested on: Hsp90; assay: Hsp90 client protein immunodetection assay (Her2 degradation, Hsp70 induction) in BT474 cells; assay type: cell-based, human; conditions: 24 h
# Experimental: FIG. 9. A cell-based immunodetection assay was used to monitor Hsp90 client protein, Her2 protein degradation (A), and the induction of a heat shock response Hsp70 protein levels (B) in Her2-overexpressing BT474 cell line. The effects of 40 and geldanamycin were compared to vehicle (DMSO) after treatment with varying concentrations of the compounds for 24 h. Each measurement is an average of three independent experiments run in […].
# The classic method of following the cellular activity of Hsp90 inhibitors is through the proteasome-dependent degradation of Hsp90 client proteins. […] Another hallmark of Hsp90 inhibition is the induction of a heat shock response, which was evaluated by determining the Hsp70 protein levels by […]. […] The plates were read immediately on a luminometer (Clarity™ luminescence microplate reader). Readings from wells containing only control IgG and the corresponding horseradish peroxidase-linked secondary antibody were set as background and subtracted from all measured values. The average chemiluminescence signals obtained were expressed as a percentage of Her2 reduction or Hsp70 induction in comparison to vehicle (DMSO). Values were calculated from three independent experiments performed in triplicate.
structure (smiles),measurement,setting,value
COC1=C2CCCCCCCCCCCCCCCNC(=CC1=O)C2=O [Compound 40],Cytotoxicity (in words),[1],no cytotoxicity
same,Hsp90 inhibition judged by client proteins Her2 and Hsp70 (in words),[2],did not inhibit Hsp90
